Results: paper PMC6271241, “Several Human Cyclin-Dependent Kinase Inhibitors, Structurally Related to Roscovitine, As New Anti-Malarial Agents” (Molecules, 2014)
Where two headings read alike, the source gives them in different places.

Tests used:
Pf7G8 = experiment: [3H]hypoxanthine incorporation growth assay, Pf7G8; format: cell-based, Plasmodium falciparum; settings: Plasmodium falciparum
Method: (§1) A selection of 15 molecules 4b–c, 10–13 representing the different 2,6,9-trisubstituted purine series, including newly synthesized products was screened as anti-malarial agents on two different P. falciparum strains, Pf3D7, a standard drug-sensitive African stain, and Pf7G8, a brazilian chloroquino-resistant strain (Figure 3). The compound activity was evaluated during the parasitic erythocytic cycle, by the means of a [^3H] hypoxanthine incorporation assay. It is directly correlated to parasite viability, as described in the experimental section.
(§2) At first, the activity of the fifteen compounds was screened at three different concentrations (10, 50 and 100 µM) on Pf3D7. Chloroquine which is not a kinase inhibitor, but which is the antimalarial reference drug was used as the positive control. […] Chloroquine was again used as a positive control.
(§3) Compounds were tested against synchronous ring-stage parasites of Pf3D7 and Pf7G8 strains. Drugs testing were carried out in 96-well microtiter plates. The chloroquine (CQ) diphosphate was purchased from Sigma (Lyon, France). […] For each assay, each drug dilution was analyzed in triplicate.
(§4) For the in vitro isotopic microtest, 200 µL of the suspension of synchronous parasitized red blood cells with >90% of the parasites at the ring stage (final parasitaemia, 0.3%; final haematocrit, 4%) per well were plated in 96-well plates that contained serial CQ or compounds concentrations. […] The plates were incubated at 37 °C, in an atmosphere of 5% O2, 5% CO2, and 90% N2 for 48 h. Immediately after incubation, plates were frozen and then thawed to lyse the erythrocytes. Cultures were harvested onto glass fiber filters and washed using a cell harvester (FilterMAT; Skatron Instruments, Dalsletta, Norway). The dried fiber filter papers were mixed with 2 mL of scintillation fluid (OptiScint; Perkin-Elmer, Waltham, UK). […] The initial value and the asymptotic result for high concentrations were fixed to 0% and 100%, respectively, available on the web.

Pfmrk = test system: Pfmrk; design: method as in PMID 10722743, PMID 11434907; settings: recombinant; cited from earlier work
CDK1/cyclin B = CDK1/cyclin B kinase assay ([γ-33P] ATP, histone H1); format: biochemical, starfish; settings: Table A1; read-out: IC50 on HsCDKs HsCDK1
Pf3D7 = experiment: [3H]hypoxanthine incorporation growth assay, Pf3D7; format: cell-based, Plasmodium falciparum; settings: Plasmodium falciparum
Method: as §1, §2, §3, §4

recombinant PfPK5 = test system: recombinant PfPK5; design: method as in PMID 10722743, PMID 11434907; settings: cited from earlier work
DYRK1A = test system: DYRK1A; design: method as in PMID 17850214; settings: at 0.1 µM; cited from earlier work

CC(C)[C@H](CO)Nc1nc(Nc2cccc(Cl)c2)c2ncn(C(C)C)c2n1 [Compound 2a, purvalanol A, reference compound]
IC50 (Pf7G8; 48 h, read-out: Growth IC50 Pf7G8): 8.12 µM
IC50 (Pf7G8; read-out: IC50 on P. falciparum Strains Pf7G8): 8.12 µM
IC50 (Pfmrk): 26 µM
IC50 (CDK1/cyclin B): 0.004 µM
IC50 (Pf3D7; 48 h, read-out: Growth IC50 Pf3D7): 4.58 µM
IC50 (Pf3D7; read-out: IC50 on P. falciparum Strains Pf3D7): 4.58 µM
IC50 (recombinant PfPK5): 8 µM
remaining DYRK1A kinase activity (DYRK1A): 88%
